From patent US7498329B2, “Salt form of dopamine agonist” (Pfizer Inc., priority 2005, dated 2009)

Experiments:
[1] = Water sorption / hygroscopicity (Dynamic Vapour Sorption); format: physicochemical
Experimental: Water sorption of 5-[(2R,5S)-5-methyl-4-propylmorpholin-2-yl]pyridin-2-amine di-S-camsylate monohydrate) at 30° C. Sorption at 90% RH is 0.316%(w/w) of dry weight. This value relates to non-bound water and is in addition to that involved in the crystal lattice.
Dynamic Vapour Sorption (DVS): Automated Sorption Analyser Model DVS-1. Manufactured by Surface Measurements Systems Ltd. UK. Solid (10-20 mg) is exposed to controlled relative humidity (% RH) environment and the weight change recorded over time. The humidity was stepped from 0 to 90 to 0% RH in 15% RH intervals. A rate of sorption of 0.0005%/min needs to be achieved at each humidity before exposure to the next humidity in the method. When a sample is deliquescent equilibrium sorption is not always achieved.

dopamine D3 receptor [2] = target: T1, dopamine D3 receptor (Homo sapiens, UniProt P35462); settings: according to WO2004/052372; cited from earlier work
dopamine D3 receptor [3] = target: T1, dopamine D3 receptor; assay: Functional activity at the dopamine D3 receptor (methods of WO 2004/052372); format: cell-based
Experimental: Activity at the dopamine D3 receptor may be determined using the methods described in WO 2004/052372, which is incorporated herein by reference. […] Selectivity is calculated as the D2 EC50 value divided by the D3 EC50 value.

[4] = Hydrate stability under reduced partial pressure (vacuum drying conditions); format: physicochemical; settings: reduced partial pressure at 40° C.
From the text: Typically a pharmaceutical hydrate would be expected to dehydrate within a few hours of exposure to 0% RH. […] This is a much higher temperature than would normally be expected for a hydrated salt. Such kinetic stability is desirable for allowing the compound to be successfully milled prior to formulation. • Many hydrates are not stable to the harsh vacuum drying conditions required in the isolation of a pharmaceutical drug product. However, 5-[(2R,5S)-5-methyl-4-propylmorpholin-2-yl]pyridin-2-amine di-S-camsylate monohydrate would be stable in such a process as, upon exposure to reduced partial pressure at 40° C., the hydrate remains down to 10 mbar.

[5] = Hydrate kinetic stability at 0% RH (isothermal thermogravimetric analysis); format: physicochemical
Experimental: Isothermal gravimetric analysis of 5-[(2R,5S)-5-methyl-4-propylmorpholin-2-yl]pyridin-2-amine di-S-camsylate monohydrate at 40, 45, 80 and 85° C. Material was held at a selected temperature with a 0% RH flow of nitrogen. 5-[(2R,5S)-5-methyl-4-propylmorpholin-2-yl]pyridin-2-amine di S-camsylate salt dehydrates at 85° C., 0% RH. Many hydrates would be lost at 30° C./0% RH.
ThermoGravimetric Analysis (TGA): Manufactured by TA instruments, model 2950. Approximately 8 mg of the sample was held at analysis temperature in an open pan with 0% RH nitrogen flow for a minimum of 30 min. Results are representative of the kinetic stability of the hydrate over the period of time the sample was exposed.

T1 sequence (P35462 whole entry, species assumed): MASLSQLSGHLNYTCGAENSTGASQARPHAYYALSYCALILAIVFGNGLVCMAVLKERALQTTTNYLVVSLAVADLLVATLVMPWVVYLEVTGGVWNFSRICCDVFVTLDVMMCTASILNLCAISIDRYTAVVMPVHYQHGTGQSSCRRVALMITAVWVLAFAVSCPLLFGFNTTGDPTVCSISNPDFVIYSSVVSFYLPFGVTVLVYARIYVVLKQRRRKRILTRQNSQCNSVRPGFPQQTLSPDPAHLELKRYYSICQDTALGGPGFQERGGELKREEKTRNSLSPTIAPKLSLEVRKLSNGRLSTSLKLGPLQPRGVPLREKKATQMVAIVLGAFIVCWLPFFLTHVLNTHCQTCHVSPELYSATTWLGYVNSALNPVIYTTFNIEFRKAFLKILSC

Row | Structure (SMILES) | deliquescence [1] | D3 agonist activity (in words) (dopamine D3 receptor [2]) | hygroscopicity [1] | water sorption ([1]; 90% RH, 30° C., non-bound water) | EC50 (dopamine D3 receptor [3]) | selectivity for D3 over D2 (dopamine D3 receptor [3]; D2 EC50 value divided by the D3 EC50 value) | pressure down to which the hydrate remains [4] | dehydration of the hydrate ([5]; after 3.5 hours, 0% relative humidity (RH) at 30° C.) | temperature at which the dehydration event was observed ([5]; heating in a flow of 0% RH (nitrogen))
1 | CCCN1C[C@@H](c2ccc(N)nc2)OC[C@@H]1C (single isomer, unassigned) | deliquescent | selective D3 agonist |  |  |  |  |  |  | 
2 | CCCN1C[C@@H](c2ccc(N)nc2)OC[C@@H]1C [5-[(2R,5S)-5-methyl-4-propylmorpholin-2-yl]pyridine-2-amine, di((1S)-10-camphorsulfonate)monohydrate] | not deliquescent |  | non-hygroscopic | 0.316 %(w/w) of dry weight | 21 nM | 476 fold | 10 mbar | does not dehydrate | 85 °C
